Consider 90 compounds from a melting point compilation (Tetko et al.; mined from patent text by program, amines drawn as free bases though some values may be those of a salt).

Bounds are passed on as bounds.

What is called melting point is the temperature of the solid-liquid transition.

Regarding `CNC(=O)N(O)Cc1cc2ccccc2s1`, the melting point was 160 to 161 °C.
The compound `O=C(NCCO)c1cccc(-c2ccc3ccn(-c4ccc(Cl)cc4Cl)c3n2)c1` gave a melting point of 159 to 160 °C.
Under `Cc1ccnc(-c2ccoc2)c1OC1SCC(O)C(O)C1O` (stereo not given) stands 95 °C; under `CC1(C)C(=O)ON(Cc2ccc(Cl)cc2Cl)C1=O`, 68 to 69.5 °C.
Under `CCCCCCCCCCCCCCCCCCOc1cccc(C(=O)O)c1OCCCOc1ccc(O)cc1` stands 81 to 83 °C; under `CS(=O)(=O)c1ccc(-c2ncccc2C(=O)c2cccc(F)c2)cc1`, 157 to 159 °C.
The figure for `NS(=O)(=O)OCCOc1ccc(-n2cncn2)cc1` is 134 to 136 °C; for `CN(C)CCOc1cc(NS(=O)(=O)c2ccc(Oc3cccc(Cl)c3C#N)cc2)ccc1Cl` it is 103 to 106 °C.
`O=C(CNC(=O)c1ccc([N+](=O)[O-])c(I(=O)=O)c1)OCc1ccccc1` came in with a melting point of 196 to 198 °C.
The figure for `CS(=O)(=O)c1ccc(-c2nc(C(F)(F)F)[nH]c2-c2ccc(F)c(F)c2)cc1` is 249 to 252 °C; for `Cc1cc(C)cc(-c2nc(NC(=O)C(C)C)sc2-c2ccncc2)c1` it is 270 to 272 °C; for `COc1ccc2c(c1)c(CC(O)(P(=O)(O)O)P(=O)(O)O)c(C)n2C(=O)c1ccc(Cl)cc1` it is 202 °C.
The figure for `CCCCn1ncc(/C=C(\Cc2cc3c(cc2OC)OCO3)C(=O)O)c1-c1cc(Cl)c(C)cc1OCc1ccccc1C(=O)O` is 114 to 116 °C; for `Nc1cccc(-c2ccc(OCCN3CC4C(N)C4C3)c3ccccc23)n1` (stereo not given) it is 140 to 155 °C.
Under `C=COCCCCOC(=O)CCCCCCCCCCC(=O)OCCCCOC=C` stands 42 to 43 °C.
In turn, `CCn1c(CO)nc(C(C)C)c1Sc1cc(C#N)cc(C#N)c1` had a melting point of 167 to 169 °C.
In turn, `O=S(c1ccccc1)c1ncc(Cl)cc1F` (stereo not given) came in with a melting point of 77 to 78 °C.
The figure for `COc1cccc2c(Oc3cc(-n4c(=O)cc(C(F)(F)F)n(C)c4=O)c(F)cc3C#N)cccc12` is 109 °C.
Under `Cc1ccc(C(=O)NCc2ccc3c(c2)CN(C2CCC(=O)NC2=O)C3=O)cc1Cl` (stereo not given) stands 229 to 231 °C; under `C1=CC(c2ccccc2)(c2ccccc2)CCS1`, 78 °C.
Under `N#CCC#CC1(c2ccc(Cl)cc2)CC1` stands 62 to 64 °C; under `CC(C)(C)C(=O)Oc1ccc(NCC2CCc3ccccc3C2)cc1` (stereo not given), 75 to 77 °C; under `CNc1nc(-c2cccc(-c3cccc(SC)c3)c2)c2cc(OC)c(OC)cc2n1`, 195 to 197 °C.
Compound `Cc1nccn1-c1cccc(O)c1` showed a melting point of 178 to 181 °C.
`COc1ccc2[nH]c3c(c2c1)C(C(=O)OCc1ccccc1)CCC3` (stereo not given) showed a melting point of 81 to 83 °C.
The figure for `CCOC(=O)c1c(N)sc(C#N)c1C` is 200 to 202 °C.
With `CN1C(=O)C(NC(=O)OCc2ccccc2)N=C(c2ccccc2)c2ccccc21` (stereo not given), the melting point was 78 to 80 °C.
The figure for `Cc1ccc2c(c1)O[C@@H](CN1CCC(CNC(=O)c3cccnc3N)CC1)CO2` is 143 to 146 °C.
Under `Cc1ccc(C2(CC(=O)O)CNC(=O)C2)cc1` (stereo not given) stands 184 to 186 °C; under `Cc1nc(N2CCCC2)ccc1N1CCCn2c1nc1c(Cl)ccc(C(OC(F)F)C(F)(F)F)c12` (stereo not given), 233 to 236 °C; under `Cc1nc(-c2cc3c(Oc4ccc(Cl)cc4)cncc3s2)no1`, 120 to 121 °C.
The figure for `Cc1sc2c(Br)c3ccccc3c(-c3ccc(O)c([N+](=O)[O-])c3)c2c1C` is 183 to 185 °C; for `N#Cc1ccc2c3ccc(C#N)c4c(C#N)ccc(c5ccc(Br)c1c52)c43` it is 235 to 237 °C.
`CC(=O)Nc1cccc(-c2ccc(OC[C@H](O)CCc3cccnc3)cc2)c1` had a melting point of 110 to 113 °C.
Under `N#Cc1cccc(N2C(=O)CC(=O)Nc3c2ccc2ccccc32)c1` stands 220 to 222 °C; under `CSc1c(N)nc(N2CCOCC2)nc1Cl`, 115 °C; under `COc1ccccc1-c1nc(CC(=O)O)cs1`, 104 to 105 °C.
`O=C(NNS(=O)(=O)c1ccccc1)c1ccccc1Oc1ccccc1` had a melting point of 149 to 150 °C.
As for `CCCCCCCCCCCCCCOc1ccc(C(=O)NCc2ccccn2)cc1`, the melting point was 91 to 93 °C.
In the case of `Nc1cc(C(F)(F)F)ccc1C=C1NC(=S)NC1=O`, the melting point was determined as 240 °C.
Under `Cn1cc(C(=O)NCc2ccc(Cl)cc2)c(=O)c2cc(CCl)cc(I)c21` stands 237 to 239 °C; under `CSc1ncc(Oc2cccnc2)c(=O)[nH]1`, 205 to 208 °C.
On to `COc1ccc(OCCCCCN2CCN(Sc3ccc[nH]3)CC2)cc1`, for which the melting point is 83 to 85 °C.
Under `COc1cc(C(=O)c2ccccc2[N+](=O)[O-])c(Br)cn1` stands 128 to 131 °C; under `CC#COc1ccc2c(=O)cc(-c3ccccc3)oc2c1`, 199 to 200 °C; under `COc1cc(C)nc(-c2cccc(-c3ccccc3C)n2)n1`, 103 °C.
The figure for `Cc1ccc(CI)cc1Cl` is 88 °C; for `Cc1cccc(Cl)c1C(=O)N[C@@H](Cc1ccc(-c2cn(C)c(=O)n(C)c2=O)cc1)C(=O)O` it is 234 to 236 °C; for `CCn1cc(C(=O)O)c(=O)c2cnc(N3CCN(Cc4ccc(OC)cc4)CC3)nc21` it is 136 °C.
For `C/N=C1\N(C)C(=O)C(=Cc2c[nH]c3ccccc23)N1C`, the melting point was 241 to 242 °C.
Under `O=C1C(c2ccccc2)=C(c2ccccc2)C(=O)N1Cc1ccc(F)cc1` stands 124 to 125 °C.
Under `CCOC(=O)Nc1nn(C)c2cc(OCc3ccccc3)ccc12` stands 204 °C; under `O=[N+]([O-])c1ccccc1COc1ccc2ncc3c(c2c1)CCCC3`, 153 to 154 °C.
Under `CC(C)(CN)c1ccc(C(=O)Nc2cn3cc(Cl)ccc3n2)cc1` stands 245 to 247 °C; under `CC(C(=O)N(C)C)n1cc(Cl)c(-c2c(Cl)cccc2Cl)n1` (stereo not given), 126 to 128 °C.
On to `CC(C)n1c(=O)n(C)c(=O)c2c(SCCCO)n(C3Cc4ccccc4C3)cc21`, for which the melting point lay within 123 to 125 °C.
`CN1C(=O)CC(c2c[nH]c3ccc(Br)cc23)C1=O` (stereo not given) showed a melting point of 194 to 195 °C.
Under `O=C(NCc1ccncc1)N(c1ccccc1)c1ccccc1` stands 174 °C; under `CC(C)(C)OC(=O)NCc1ccc(-c2ccc(O)c(Br)c2)cc1`, 113 to 117 °C.
With `COc1ccc(C2CNC(=O)O2)cc1OC1CCCC1` (stereo not given), the melting point lay in the range of 111 to 112 °C.
Under `CCCCCCC(c1ccc2[nH]c(-c3ccc(F)cc3)nc2c1)n1ccnc1` (stereo not given) stands 122 °C; under `c1cc2c3c(ccc(OCCCN4CCCCC4)c3c1)-c1cc(OCCCN3CCCCC3)ccc1-2`, 92 to 93 °C; under `CCCCCC(=O)NCCc1ccc(S(=O)(=O)NC(=O)c2ccc(C(=O)NCC(=O)O)nc2)cc1`, 115 to 116 °C.
The figure for `CSc1noc(-c2ccc(OCCOc3ccccc3)cc2)c1C#N` is 128 to 131 °C.
Under `CCOC(=O)C(C(=O)OCC)C(N)c1ccc(Cl)cc1C(N)C(C(=O)OCC)C(=O)OCC` (stereo not given) stands 90 to 92 °C.
`Clc1cc(-c2cc3ccccc3s2)nc2ccccc12` displayed a melting point of 142 to 145 °C.
The figure for `CC(C(=O)O)c1ccc(-c2ccccc2[N+](=O)[O-])cc1` (stereo not given) is 116 to 119 °C.
The figure for `Cc1cccc(C(=O)Nc2c(C(O)(C(F)(F)F)C(F)(F)F)ccc3ccccc23)c1` is 167 to 168 °C; for `O=C(O)Cc1ccc(Br)cc1[N+](=O)[O-]` it is 166 to 168 °C.
Under `CCOC(=O)c1c(CCc2ccc(OC)cc2)oc2ccc(Br)cc12` stands 73 to 75 °C; under `CCNC(=O)CC1CCN(Cc2cnc3cc(NC(=O)c4ccc(-c5ccc(F)cc5)cc4)ccc3c2)CC1`, 224 to 227 °C.
`Oc1ccc(C(=S)N2CCOCC2)cc1` had a melting point of 205 °C.
The figure for `O=C1c2ccccc2C(=O)N1Cc1ccccc1[N+](=O)[O-]` is 190 to 209 °C.
Under `COc1c(OCc2ccc3ccccc3c2)cccc1C(=O)c1nccs1` stands 100 °C; under `CC(=O)Nc1cc(N)c(Cl)cc1NC(C)=O`, 237 °C; under `CCOCCOc1ccc2c(c1)C(CNS(=O)(=O)CC)CC(C)(C)O2` (stereo not given), 70 to 72 °C.
`O=C(O)c1ncn2c1CSC2` returned a melting point of 184 to 185 °C.
The figure for `Cc1cc(Cl)cc(C(=O)Nc2ccc(F)cn2)n1` is 156 °C; for `COc1ccc2nc(NC(=O)C(CC3CCCC3)c3ccc(S(=O)(=O)NCc4ccco4)cc3)sc2n1` (stereo not given) it is 244 to 247 °C; for `Cc1cc2c(c(C)c1C)OCC2` it is < 50 °C.
The figure for `Cc1ccc(Cl)c(NS(=O)(=O)c2nc(C)n(-c3ncccn3)n2)c1Cl` is 214 to 216 °C.
Under `COC(=O)c1cscc1N=C=S` stands 93 to 95 °C.
The compound `NCc1ccc(-c2csc(N)n2)s1` showed a melting point of 189 °C.
Under `CN1Cc2cccc3[nH]cc(c23)C1` stands 185 to 186 °C.
The compound `COP(=O)(OC)C(O)=Cc1ccc(C)cc1` had a melting point of 100 to 102 °C.
Compound `CCc1ccc(C(C)=O)c(NC(C#N)c2c(Cl)cccc2Cl)c1` (stereo not given) showed a melting point of 111 °C.
Under `NC(=O)c1ccc(F)c2c1CC(N(CCc1c[nH]c3ccc(F)cc13)CC1CC1)CO2` (stereo not given) stands 132 °C.
Under `Nc1cc(=O)n2cc(Cl)c(C(c3c(F)ccc(F)c3F)S(=O)(=O)CCC(F)(F)F)cc2n1` (stereo not given) stands 247 °C; under `CN1C(=O)[C@H](NC(=O)/C=C/c2ccc(Cl)cc2Cl)N=C(c2ccccc2)c2ccccc21`, 137 to 139 °C; under `CCCNC(=O)C(CC)Cc1ccc2c(c1)c(Cc1ccc(C(=O)NS(=O)(=O)c3ccccc3C)cc1OC)cn2CCC` (stereo not given), 93 to 105 °C.
